Experimental data: patent US20220362279A1, “USE OF OLIGONUCLEOTIDES FOR THE TREATMENT AND PREVENTION OF PAIN” (CONSEJO NACIONAL DE INVESTIGACIONES CIENTÍFICAS Y TÉCNICAS, priority 2018, published 2022)
“Also recorded” adds a separate entry of the source. Strand notation (5' to 3'): a small letter for the sugar, then the base; units joined by * are phosphorothioate-linked, units joined directly phosphodiester-linked; [ ] holds rarer units or linkages, { } end groups; capitals alone tell only the bases. d = 2'-deoxy (DNA)

Columns and labels:
Format in all cases: in vivo, rat
[1] = system: rats with hind paw inflammation (CFA rats); experiment: Hind paw dorsoventral thickness in rats with CFA-induced hind paw inflammation; conditions: preventive IMT504 before CFA; whole tested period
Method: (§1) In fifty-two rats anesthetized with Isoflurane (5% induction, 2.5% maintenance, 0.8 L/min O2 flow rate; Piramal Healthcare, UK), the right hind paw was injected intra-dermally with 100 μl of CFA (1:1, dissolved in normal saline; Sigma-Aldrich, Mo., USA), using a 1 ml syringe with a 25G needle attached. The animals (from now on, called CFA rats) were left to recover from anesthesia in a warm and quiet environment before relocating them in their corresponding cages.
In one set of experiments, called “preventive treatment”, four rats received a daily dose of 20 mg/kg IMT504 for five consecutive days and four weeks later one dose of 6 mg/kg (group a); a second group of four rats received one dose of 6mg/kg of IMT504 (group b) (FIG. 1A). Three days after the single injection of 6 mg/kg IMT504, all eight rats received intra-plantar CFA, after which they were tested for mechanical and cold allodynia during 21 days. At day 28, group b received an additional administration of IMT504 at a dose of 3 mg/kg and was evaluated until day 35. […]
Eight rats received a dose of 6 mg/kg IMT504 (FIGS. 2 and 3). […] On day 28 (FIG. 1) or 28 (FIG. 2), rats receiving preventive IMT504 were administered additional IMT504 at a dose of 3 mg/kg (FIG. 1) or 2 mg/kg (FIG. 2), and assessed until days 21-35.

[2] = system: naïve rats; experiment: Hind paw mechanical withdrawal threshold in naïve rats; conditions: 20 mg/kg daily x5; observed up to 22 days; vs saline-treated naïve rats
Method: (§2) Naïve (uninjured and untreated; n=16), CFA injured untreated (n=10), and vehicle-treated CFA (n=9) or SNI rats (n=10) were used as controls. Eight naïve rats remained untreated, four were vehicle-treated, and four received a daily dose of 20 mg/kg IMT504 for five consecutive days. Untreated CFA rats received an intradermal hind paw injection of CFA and no further treatment. Vehicle-treated CFA rats received five daily subcutaneous injections of saline (200 μl), starting seven days after injury. Vehicle-treated SNI rats received one single dose of saline (200 ul), starting seven days after injury.
(§3) For mechanical allodynia assessment, a set of von Frey filaments (Stoelting, Ill., USA) and the modified up-down method of Dixon were used, as described by Chaplan et al. (Chaplan S R, et, al., (1994) J. Neurosci Methods 53: 55-632) to establish the 50% withdrawal threshold. A withdrawal threshold of 6 g or less was considered an allodynic response.

[3] = system: rats with hind paw inflammation (CFA rats); experiment: Mechanical allodynia (von Frey, 50% withdrawal threshold) in rats with CFA-induced hind paw inflammation
Method: as §1
(§4) In one set of experiments, called “preventive treatment”, four rats received a daily dose of 20 mg/kg IMT504 for five consecutive days and four weeks later one dose of 6 mg/kg (group a); a second group of four rats received one dose of 6mg/kg of IMT504 (group b) (FIG. 1A). Three days after the single injection of 6 mg/kg IMT504, all eight rats received intra-plantar CFA, after which they were tested for mechanical and cold allodynia during 21 days. At day 28, group b received an additional administration of IMT504 at a dose of 3 mg/kg and was evaluated until day 35.
In a second set of experiments, groups of rats were allocated to early or late treatment protocols (ET and LT, respectively), using a daily dose of 20 mg/kg IMT504 for five consecutive days (FIG. 2A). The ET protocol (n=5) was performed immediately after the intradermal injection of CFA in the hind paw; the LT protocol (n=5) was initiated seven days after the induction of hind paw inflammation (FIG. 2A). In all cases, animals where tested for pain-like behavior during four weeks after the induction of hind paw inflammation (days 1, 3, 7; weeks 2, 3 and 4).
In a third set of experiments, different concentrations and dosages of IMT504 were administered subcutaneously using the LT protocol (FIG. 3A). Rats were separated in three groups (n=5 per group) and treated as follows: i) a daily dose of 0.2 mg/kg of IMT504 for five consecutive days, ii) a daily dose of 2 mg/kg of IMT504 for five consecutive days, and iii) a daily dose of 2 mg/kg of IMT504 for three consecutive days. All these groups were tested for pain-like behavior up to seven weeks after induction of the hind paw inflammation.
as §2, §3
In seventeen rats anesthetized with Isoflurane (5% induction, 2.5% maintenance, 0.8 L/min O2 flow rate; Scott-Cassara, Argentina), the right hind paw was injected intra-dermally with 100 μl of CFA (1:1, dissolved in normal saline; Sigma-Aldrich, MO, USA), using a 1 ml syringe with a 25G needle. The animals (called CFA rats) were left to recover from anesthesia in a warm and quiet environment before relocating in their corresponding cages.
Eight rats received a dose of 6 mg/kg IMT504 (FIGS. 2 and 3). Three days after the single injection of 6 mg/kg IMT504, all rats received intra-plantar complete Freund's Adjuvant (CFA), after which they were tested for mechanical and cold allodynia during 21-35 days. On day 28 (FIG. 1) or 28 (FIG. 2), rats receiving preventive IMT504 were administered additional IMT504 at a dose of 3 mg/kg (FIG. 1) or 2 mg/kg (FIG. 2), and assessed until days 21-35. […]

[4] = system: rats with postsurgical pain (plantar incision); experiment: Naloxone challenge in IMT504-pre-treated rats with plantar incision, mechanical withdrawal threshold
Method: In all experiments, the oligodeoxynucleotide (ODN) IMT504, with sequence 5′-[sequence]-3′ (SEQ ID No 1) was used. The HPLC-grade phosphorothioate ODN (Biosynthesis Inc., Lewisville, Tex., USA) was suspended in sterile saline solution (VEH, 0.9% NaCl; 20 mg/ml; storage concentration) and assayed for LPS contamination. Working concentration doses (6 mg/kg) were obtained by additional dissolving in sterile VEH. The ODN was administered subcutaneously, at a final volume of 200-300 μl, depending on animal weight.
A group of rats also received an intraperitoneal (i.p.) injection of naloxone hydrochloride (Narxona 0.4 mg/ml; Scott-Cassara, Bs. As., Argentina), at a dose of 2 mg/kg, in order to test if the effect of IMT504 could be blocked by the pan-opioid receptor antagonist.
The rat hind paw plantar incision model of postoperative pain was used as previously described [Brennan, T. J., E. P. Vandermeulen, and G. F. Gebhart, Characterization of a rat model of incisional pain. […] Briefly, rats were anesthetized using isoflurane (5% induction, 2.5% maintenance, 0.8 l/min O2 flow rate; Piramal Healthcare, UK) and the plantar aspect of the right hind paw was disinfected with povidone iodine. A 1.0-cm longitudinal incision was made 0.5 cm from the end of the heel. The underlying flexor muscle was also incised longitudinally, allowing the muscle origin and insertion to remain intact. After hemostasis by gentle pressure, the skin was closed with sutures of 5-0 nylon.
Rats were divided into injured rats receiving IMT504 (6 mg/kg, dissolved in VEH) or VEH alone, 48h and 24 h prior to surgery. […]
Mechanical withdrawal thresholds were assessed by using von Frey nylon monofilaments of different bending forces (1.4, 2, 6, 8, 10, 15 and 26 g; Stoelting Inc., Wooddale, USA) and the modified up-down method of Dixon, as described by Chaplan and cols. (Chaplan, S. R., et al., Quantitative assessment of tactile allodynia in the rat paw. J Neurosci Methods, 1994. 53(1): p. 55-63) , to establish the 50% withdrawal threshold. […]

[5] = system: rats with hind paw inflammation (CFA rats); experiment: Cold allodynia (acetone drop) in rats with CFA-induced hind paw inflammation
Method: as §1, §4
For cold allodynia assessment, the reaction to the application of a drop of acetone onto the plantar surface of the hind paw was used. Both frequency of withdrawal and cold score (pain-like behavior intensity) were measured. […]

[6] = 6 mg/kg 3 days before CFA (FIG. 6, FIG. 8)
[7] = 6 mg/kg 3 days before CFA (FIG. 7)
[8] = 6 mg/kg 3 days before CFA, booster 3 mg/kg day 28
[9] = 20 mg/kg daily x5 plus single 6 mg/kg three days before CFA

Substance: IMT504: synthetic phosphorothioate oligodeoxynucleotide with sequence 5′-TCATCATTTTGTCATTTTGTCATT-3′ (SEQ ID No 1) (DNA dT*dC*dA*dT*dC*dA*dT*dT*dT*dT*dG*dT*dC*dA*dT*dT*dT*dT*dG*dT*dC*dA*dT*dT)
- effect on hind paw inflammation (dorsoventral paw thickness) [1]: does not prevent occurrence of inflammation; also recorded: did not seem to alter the natural course of hind paw inflammation; also recorded: without altering the inflammatory state of the affected hind paw
- hind paw mechanical withdrawal threshold in naïve rats [2]: did not shown changes; also recorded: did not show any evident changes
- period after induction of inflammation during which IMT504 prevents mechanical allodynia [3, 6]: 7 days
- time of reaching allodynic levels comparable to vehicle-treated rats [3, 6]: 14 days after injury
- day by which mechanical withdrawal thresholds are fully comparable to injured untreated or vehicle-treated rats ([3]; 6 mg/kg 3 days before CFA, both groups (FIG. 10A, 11A)): 21 days
- lack of mechanical allodynia until ([3]; 6 mg/kg 3 days before CFA, group with booster on day 21 (FIG. 11A)): 7 days after injury
- lack of mechanical allodynia until ([3]; 6 mg/kg 3 days before CFA, group with booster on day 28 (FIG. 10A)): 3 days after injury
- effect of a booster dose of 2 mg/kg IMT504 21 days after injury on mechanical allodynia ([3]; 6 mg/kg 3 days before CFA, booster 2 mg/kg day 21 (FIG. 11A)): completely restored the anti-allodynic effect
- effect of an additional dose of 3 mg/kg IMT504 28 days after injury on mechanical allodynia ([3]; 6 mg/kg 3 days before CFA, booster 3 mg/kg day 28, observed one day after re-administration): quickly reverted; also recorded: complete reduction in mechanical and cold allodynia; also recorded: full recovery of basal withdrawal thresholds; also recorded: completely restored the anti-allodynic effect
- recovery of basal mechanical withdrawal thresholds, ET protocol ([3]; 20 mg/kg daily x5, started immediately after CFA): reaching basal levels seven days after treatment initiation; also recorded: reaching basal thresholds seven days after injury and onwards
- recovery of basal mechanical withdrawal thresholds, LT protocol ([3]; 20 mg/kg daily x5, started seven days after CFA): fully achieved seven days after initiation of the treatment; also recorded: recovery of basal mechanical withdrawal thresholds starting one week after treatment (two weeks after injury)
- withdrawal thresholds of contralateral hind paws ([3]; IMT504-treated CFA rats, data not shown): remained normal; also recorded: normal basal values
- start of progressive recovery towards basal mechanical withdrawal thresholds ([3]; LT protocols (0.2 or 2 mg/kg, three or five daily doses from day 7 after CFA), s.c.): 10 day after injury
- recovery of mechanical withdrawal threshold ([3]; LT, 0.2 mg/kg daily x5, s.c., 0.2 mg/kg): slower, incomplete recovery, never reaching basal withdrawal thresholds; also recorded: not reaching the basal level
- difference to vehicle-treated CFA rats towards the end of the assay ([3]; LT, 0.2 mg/kg daily x5, p>0.05): no significant differences with the vehicle-treated CFA rats
- reaching basal ipsilateral withdrawal thresholds, counted from initiation of treatment ([3]; LT, three or five daily doses of 2 mg/kg, s.c.): reaching basal ipsilateral withdrawal thresholds at day five after initiation of the treatment and onwards
- persistence of basal withdrawal thresholds ([3]; LT, three or five daily doses of 2 mg/kg, s.c., 2 mg/kg): maintained basal withdrawal thresholds throughout the whole assay period; also recorded: maintaining such a condition throughout the entire assay (seven weeks)
- time at which mechanical withdrawal thresholds reach allodynic levels ([3]; preventive IMT504 (20 mg/kg x5 + 6 mg/kg, or 6 mg/kg only) three days before CFA, both groups): 14 days after injury
- mechanical allodynia twenty-one days after injury ([3]; preventive IMT504, both groups, comparable to untreated CFA-rats): all animals reached basal allodynic levels
- lack / prevention of mechanical allodynia after CFA-induced inflammation ([3]; preventive IMT504: 20 mg/kg daily x5 plus 6 mg/kg four weeks later, or 6 mg/kg only, CFA three days after the 6 mg/kg dose, both groups): prevention of mechanical allodynia; also recorded: lack of mechanical allodynia during the first three days
- time from which basal withdrawal thresholds are recovered ([3]; single dose of 2 mg/kg, one week after CFA): 21 days after injury
- recovery of basal withdrawal thresholds ([3]; single dose of 2 mg/kg, one week after CFA, 2 mg/kg): slower, but finally complete, recovery of basal withdrawal thresholds; also recorded: slower, incomplete recovery, never reaching basal withdrawal thresholds
- anti-allodynic effect of IMT504 under systemic non-selective opioid receptor antagonist ([4]; naloxone 2 mg/kg i.p. at day 3 after injury (FIG. 18)): temporarily blocked
- mechanical allodynia on day 3 after injury ([4]; two doses of pre-emptive IMT504 (6 mg/kg, 48 h and 24 h before surgery)): completely abolished
- period after induction of inflammation during which IMT504 prevents cold allodynia [5, 7]: 1 days
- time of reaching cold allodynic levels comparable to vehicle-treated rats [5, 7]: 7 days after injury
- effect of an additional dose of 3 mg/kg IMT504 28 days after injury on cold allodynia [5, 8]: full anti-allodynic effect; also recorded: complete reduction in mechanical and cold allodynia
- time at which the anti-allodynic effect (cold) of the reinforcement dose is lost [5, 8]: 35 days after injury
- progression of cold allodynia [5, 9]: very slow increase in cold withdrawal frequency; also recorded: slow progression towards cold allodynia
- time of peak of cold allodynia [5, 9]: 21 days after injury
- frequency of cold allodynia ([5]; both preventive groups, twenty days after injury): 60%
- time of peak of cold allodynia ([5]; single dose of 6 mg/kg only, three days before CFA): 21 days after injury
- protection against cold allodynia ([5]; single dose of 6 mg/kg only, three days before CFA, 6 mg/kg): more moderate anti-allodynic effect; also recorded: milder protection against cold allodynia
- cold allodynia vs injured vehicle-treated rats, days 1 and 3 after injury ([5]; single preventive dose of 6 mg/kg (FIG. 11B)): significantly lower than that observed in injured vehicle-treated rats
- cold allodynia vs vehicle-treated rats, from day 7 on ([5]; single preventive dose of 6 mg/kg (FIG. 11B), differences not statistically significant): always showed lower levels of cold allodynia than vehicle-treated rats
